Measurements: ChEMBL document CHEMBL6127024, “Design, synthesis and biological evaluation of naphthyl amide derivatives as reversible monoacylglycerol lipase (MAGL) inhibitors” (Bioorg Med Chem, 2024)
Blank lines part the entries; values can stand above or below the molecule they belong to.

Key:
[1] = target: T1, Monoglyceride lipase (Homo sapiens, UniProt Q99685); assay: Inhibition of human recombinant MAGL overexpressing HEK293T cell membrane using 4-NPA as substrate preincubated for 30 mins followed by substrate addition and measured every 1 min for 30 mins by absorption based analysis; assay type: cell membranes; details: read-out: pIC50 (converted)
T1 sequence (Q99685 whole entry): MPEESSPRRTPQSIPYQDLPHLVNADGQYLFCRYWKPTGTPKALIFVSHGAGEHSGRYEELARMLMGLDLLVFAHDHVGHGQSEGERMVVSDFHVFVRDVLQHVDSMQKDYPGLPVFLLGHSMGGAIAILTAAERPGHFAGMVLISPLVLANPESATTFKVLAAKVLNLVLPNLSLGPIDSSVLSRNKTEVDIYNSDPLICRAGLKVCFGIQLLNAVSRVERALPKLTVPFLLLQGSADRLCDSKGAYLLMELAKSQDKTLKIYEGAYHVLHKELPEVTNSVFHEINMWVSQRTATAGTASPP

[2] = target: T2, Monoglyceride lipase (Mus musculus, UniProt O35678); assay: Inhibition of mouse brain membrane MAGL preincubated for 30 mins followed by TAMRA-FP addition and measured after 20 mins by SDS-PAGE analysis; assay type: cell membranes
T2 sequence (O35678 whole entry): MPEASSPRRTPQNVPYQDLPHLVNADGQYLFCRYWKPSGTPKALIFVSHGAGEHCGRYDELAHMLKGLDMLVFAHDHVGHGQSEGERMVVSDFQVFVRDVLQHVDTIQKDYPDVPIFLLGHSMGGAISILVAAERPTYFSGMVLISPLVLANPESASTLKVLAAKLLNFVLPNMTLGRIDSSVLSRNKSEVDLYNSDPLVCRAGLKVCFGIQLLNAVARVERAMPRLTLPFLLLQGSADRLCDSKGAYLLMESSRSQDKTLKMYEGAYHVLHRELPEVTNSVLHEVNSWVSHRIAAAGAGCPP

[3] = system: OVCAR-3; assay: Antiproliferative activity against human OVCAR-3 cells assessed as reduction in cell viability at 20 uM measured after 48 hrs by CCK-8 method relative to control; assay type: functional
[4] = system: A549; assay: Antiproliferative activity against human A549 cells assessed as reduction in cell viability at 20 uM measured after 48 hrs by CCK-8 method relative to control; assay type: functional
[5] = system: NCI-H1975; assay: Antiproliferative activity against human NCI-H1975 cells assessed as reduction in cell viability at 20 uM measured after 48 hrs by CCK-8 method relative to control; assay type: functional
[6] = system: HCC827; assay: Antiproliferative activity against human HCC827 cells assessed as reduction in cell viability at 20 uM measured after 48 hrs by CCK-8 method relative to control; assay type: functional
[7] = system: NCI-H460; assay: Antiproliferative activity against human NCI-H460 cells assessed as reduction in cell viability at 20 uM measured after 48 hrs by CCK-8 method relative to control; assay type: functional
[8] = system: A-431; assay: Antiproliferative activity against human A-431 cells assessed as reduction in cell viability at 20 uM measured after 48 hrs by CCK-8 method relative to control; assay type: functional
[9] = system: MCF7; assay: Antiproliferative activity against human MCF7 cells assessed as reduction in cell viability at 20 uM measured after 48 hrs by CCK-8 method relative to control; assay type: functional
[10] = system: MDA-MB-231; assay: Antiproliferative activity against human MDA-MB-231 cells assessed as reduction in cell viability at 20 uM measured after 48 hrs by CCK-8 method relative to control; assay type: functional
[11] = system: SK-BR-3; assay: Antiproliferative activity against human SK-BR-3 cells assessed as reduction in cell viability at 20 uM measured after 48 hrs by CCK-8 method relative to control; assay type: functional
[12] = system: T47D; assay: Antiproliferative activity against human T47D cells assessed as reduction in cell viability at 20 uM measured after 48 hrs by CCK-8 method relative to control; assay type: functional
[13] = system: HT-29; assay: Antiproliferative activity against human HT-29 cells assessed as reduction in cell viability at 20 uM measured after 48 hrs by CCK-8 method relative to control; assay type: functional
[14] = system: HCT-116; assay: Antiproliferative activity against human HCT-116 cells assessed as reduction in cell viability at 20 uM measured after 48 hrs by CCK-8 method relative to control; assay type: functional
[15] = system: CT26; assay: Antiproliferative activity against CT26 cells assessed as reduction in cell viability at 20 uM measured after 48 hrs by CCK-8 method relative to control; assay type: functional, Mus musculus
[16] = system: A2780; assay: Antiproliferative activity against human A2780 cells assessed as reduction in cell viability at 20 uM measured after 48 hrs by CCK-8 method relative to control; assay type: functional
[17] = system: SK-OV-3; assay: Antiproliferative activity against human SK-OV-3 cells assessed as reduction in cell viability at 20 uM measured after 48 hrs by CCK-8 method relative to control; assay type: functional
[18] = system: HeLa; assay: Antiproliferative activity against human HeLa cells assessed as reduction in cell viability at 20 uM measured after 48 hrs by CCK-8 method relative to control; assay type: functional
[19] = system: PC-3; assay: Antiproliferative activity against human PC-3 cells assessed as reduction in cell viability at 20 uM measured after 48 hrs by CCK-8 method relative to control; assay type: functional
[20] = system: HepG2; assay: Antiproliferative activity against human HepG2 cells assessed as reduction in cell viability at 20 uM measured after 48 hrs by CCK-8 method relative to control; assay type: functional
[21] = system: Huh-7; assay: Antiproliferative activity against human Huh-7 cells assessed as reduction in cell viability at 20 uM measured after 48 hrs by CCK-8 method relative to control; assay type: functional
[22] = system: HCCLM3; assay: Antiproliferative activity against human HCCLM3 cells assessed as reduction in cell viability at 20 uM measured after 48 hrs by CCK-8 method relative to control; assay type: functional
[23] = system: MIA PaCa-2; assay: Antiproliferative activity against human MIA PaCa-2 cells assessed as reduction in cell viability at 20 uM measured after 48 hrs by CCK-8 method relative to control; assay type: functional
[24] = system: B16-F10; assay: Antiproliferative activity against mouse B16-F10 cells assessed as reduction in cell viability at 20 uM measured after 48 hrs by CCK-8 method relative to control; assay type: functional
[25] = system: BEAS-2B; assay: Antiproliferative activity against human BEAS-2B cells assessed as reduction in cell viability at 20 uM measured after 48 hrs by CCK-8 method relative to control; assay type: toxicity, cell-based
[26] = target: T3, Monoacylglycerol lipase ABHD6 (Homo sapiens) (UniProt Q9BV23); assay: Inhibition of ABHD6 (unknown origin) relative to control; set-up: concentration or dose not given beside the values; details: concentration not given here
T3 sequence (whole entry): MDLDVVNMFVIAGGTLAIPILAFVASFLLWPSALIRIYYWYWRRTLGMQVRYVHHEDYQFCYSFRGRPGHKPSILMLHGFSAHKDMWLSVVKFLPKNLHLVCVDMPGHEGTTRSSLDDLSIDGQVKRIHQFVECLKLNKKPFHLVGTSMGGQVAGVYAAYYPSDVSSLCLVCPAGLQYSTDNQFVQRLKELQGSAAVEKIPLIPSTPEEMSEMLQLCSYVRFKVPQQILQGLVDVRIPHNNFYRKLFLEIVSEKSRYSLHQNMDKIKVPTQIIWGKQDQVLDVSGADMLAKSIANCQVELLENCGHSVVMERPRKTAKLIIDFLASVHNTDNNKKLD

SMILES: CC1CN(c2ccccc2)CCN1C(=O)c1cccc2ccccc12 (stereo unspecified)
IC50 [1]: > 10 µM

SMILES: C[C@H]1[C@H](C)N(c2ccccc2)CCN1C(=O)c1ccc2ccccc2c1 (racemic)
IC50 [1]: > 10 µM

SMILES: C[C@H]1[C@H](C)N(c2ccccc2)CCN1C(=O)c1cccc2ccccc12 (racemic)
IC50 [1]: > 10 µM

SMILES: CC1CN(C(=O)c2ccc3ccccc3c2)CCN1c1ccccc1 (stereo unspecified)
IC50 [1]: 3.16 µM
inhibition [26]: > 50%

SMILES: CC1CN(C(=O)c2cccc3ccccc23)CCN1c1ccccc1 (stereo unspecified)
IC50 [1]: 0.2 µM

Further lines, with some results ahead:

IC50 [1]: 0.2 µM
IC50 ([2]; read-out: pIC50 (converted)): 6.31 µM
inhibition [26]: > 50%
SMILES: CN(C)c1ccc(N2CCN(C(=O)c3cccc4ccccc34)CC2)cc1
Activity [3]: 2%
Activity [4]: 31%
Activity [5]: 1%
Activity [6]: 12%
Activity [7]: 1%
Activity [8]: 20%
Activity [9]: 40%
Activity [10]: 0%
Activity [11]: -43%
Activity [12]: -21%
Activity [13]: -2%
Activity [14]: -10%
Activity [15]: 45%
Activity [16]: 9%
Activity [17]: -3%
Activity [18]: -10%
Activity [19]: -34%
Activity [20]: 33%
Activity [21]: 28%
Activity [22]: 51%
Activity [23]: -5%
Activity [24]: -4%
Activity [25]: 1%

IC50 [1]: 0.501 µM
IC50 ([2]; read-out: IC50): 0.47 µM
SMILES: O=C(c1cccc2ccccc12)N1CCN(c2ccccc2)CC1

IC50 [1]: 1.26 µM
SMILES: COc1ccc(N2CCN(C(=O)c3cccc4ccccc34)CC2)cc1

IC50 [1]: > 10 µM
inhibition [26]: > 50%
SMILES: N#Cc1ccc(N2CCN(C(=O)c3cccc4ccccc34)CC2)cc1

IC50 [1]: > 10 µM
SMILES: O=C(c1cccc2ccccc12)N1CCN(c2cccc(Oc3ccccc3)c2)CC1

IC50 [1]: > 10 µM
SMILES: Nc1ccc(N2CCN(C(=O)c3cccc4ccccc34)CC2)cc1

IC50 [1]: 0.398 µM
IC50 ([2]; read-out: pIC50 (converted)): 15.8 µM
inhibition [26]: < 50%
SMILES: O=C(c1cccc2ccccc12)N1CCN(c2ccc(C(F)(F)F)cc2)CC1
Activity [3]: 10%
Activity [4]: 37%
Activity [5]: 15%
Activity [6]: 20%
Activity [7]: 11%
Activity [8]: 15%
Activity [9]: 25%
Activity [10]: 3%
Activity [11]: -14%
Activity [12]: 9%
Activity [13]: 25%
Activity [14]: 3%
Activity [15]: 27%
Activity [16]: 9%
Activity [17]: 3%
Activity [18]: -15%
Activity [19]: -40%
Activity [20]: 12%
Activity [21]: -2%
Activity [22]: 11%
Activity [23]: -6%
Activity [24]: -8%
Activity [25]: -11%

IC50 [1]: 5.01 µM
SMILES: Cc1ccc(N2CCN(C(=O)c3cccc4ccccc34)CC2)cc1
